Assay results: patent US20240252673A1, “ANTI-TISSUE FACTOR ANTIBODY-DRUG CONJUGATES AND THEIR USE IN THE TREATMENT OF CANCER” (priority 2017, published 2024)
Where a SMILES comes first, the peptide text is derived from it. [ ]: non-standard residue; d: D form. The star is where a group is joined. Dolaproine = CO[C@@H]([C@@H]1CCCN1)[C@@H](C)C(=O)O; Dil = CC[C@H](C)[C@H](NC)[C@@H](CC(=O)O)OC; X1 = C[C@@H](N*)[C@@H](O)c1ccccc1; NMeV = CN[C@H](C(=O)O)C(C)C

Assay: Phase I/II dose-escalation study: plasma pharmacokinetics
Format: in vivo, human
Conditions: after tisotumab vedotin, cycle 1 and cycle 2, all dose cohorts (FIG. 4)
Description: A first-in-human phase I/II dose-escalating study following a 3+3 dose-escalation design was conducted in order to test the safety of tisotumab vedotin in 27 subjects with locally advanced and/or metastatic cancer of various types including cervical cancer (FIG. 2). Tisotumab vedotin was administered by intravenous infusion at doses ranging from 0.3 mg/kg to 2.2 mg/kg on day 1 of a 21-day cycle for four cycles (i.e., each treatment cycle was 3 weeks). Patients with stable disease (SD) or better at the end of four cycles had the option to continue treatment with tisotumab vedotin for eight additional cycles (FIG. 2). Tumor evaluations were performed by CT scans every six weeks. In order to qualify for SD, results of the CT scan scheduled for week six needed to be SD or better. Two CT scans were performed outside the per-protocol defined window.
A primary objective of the study was to assess the safety and tolerability in a mixed population of patients with specified solid tumors. Adverse event (AE) severity was graded according to Common Terminology Criteria for Adverse Events (CTCAE) version 4.03. Secondary objectives of the study included determining the pharmacokinetic (PK) profile of tisotumab vedotin and preliminary evaluation of anti-tumor activity as assessed according to Response Evaluation Criteria in Solid Tumors [RECIST] version 1.1. Dose-limiting toxicities (DLTs) were determined during the first cycle and were defined as grade≥3 events possibly related to tisotumab vedotin. […] Tumor biopsies were required at baseline for TF expression which was assessed by immunohistochemistry utilizing tisotumab. TF staining intensity was determined using the H-scoring system.
The geometric means (% CV) of the time to reach Cmax (Tmax)(hr), maximum concentration (Cmax)(ng/mL), and area under the concentration time curve (AUC)0-t (hr*ng/mL) was measured for the pharmacokinetics (PK) portion of the study (Table 3). Low levels of unconjugated MMAE were measured in systemic circulation (FIG. 4).

For `CC[C@H](C)[C@@H]([C@@H](CC(=O)N1CCC[C@H]1[C@H](OC)[C@@H](C)C(=O)N[C@H](C)[C@@H](O)c1ccccc1)OC)N(C)C(=O)[C@@H](NC(=O)[C@@H](NC)C(C)C)C(C)C` [MMAE, monomethyl auristatin E] (H-[NMeV]V[Dil][Dolaproine]-X1), the “unconjugated MMAE in systemic circulation” value was “Low levels”.
